According to patent US12697330B2, “Therapeutic methods using vadadustat” (Akebia Therapeutics, Inc., priority 2021, dated 2026):

System: hemoglobin (Hb)
Experiment: Phase 2 study in hemodialysis subjects converting from epoetin alfa, Main Study: efficacy (hemoglobin)
Type: in vivo, human
Settings: for Change in Hb from Primary Evaluation Period to Secondary Evaluation Period, Mean (SD) / Change in Hb from Primary Evaluation Period to Secondary Evaluation Period, Median / Hb at Primary Evaluation Period (Average of Weeks 10 to 12), Mean (SD) / Hb at Primary Evaluation Period (Average of Weeks 10 to 12), Median / Hb at Secondary Evaluation Period (Average of Weeks 18 to 20), Mean (SD) / Hb at Secondary Evaluation Period (Average of Weeks 18 to 20), Median: completed 12 weeks of treatment
From the text: The primary objective was to assess the efficacy and safety of daily dosing of vadadustat compared to epoetin alfa for 12 weeks in hemodialysis subjects. Additional objectives included to assess the efficacy and safety of three times weekly (TIW) dosing of vadadustat in selected hemodialysis subjects who have been successfully managed with daily dosing of vadadustat through Week 12, to evaluate the PK/PD of daily and TIW dosing of vadadustat in hemodialysis subjects compared to epoetin alfa, and to assess the efficacy and safety of several dosing strategies of vadadustat compared to epoetin alfa during a 20-week Treatment Period in hemodialysis subjects.
The Main study population consisted of adult subjects receiving chronic, outpatient in-center hemodialysis three times weekly (TIW), with 2 screening hemoglobin (Hb) values between 8.5 and 11.0 g/dL (inclusive) and on maintenance treatment with epoetin alfa <300 U/kg/week.
Efficacy Endpoints. The primary endpoint was the mean change in Hb between Baseline (average pretreatment Hb) and the primary evaluation period (average Hb from Weeks 10 to 12). Secondary endpoints included proportion of subjects with Hb values within the target range (10.0 to 11.0 g/dL, inclusive) at the primary evaluation period (Weeks 10-12) and for subjects who transitioned to TIW vadadustat dosing, mean change in Hb from primary evaluation period (average Hb from Weeks 10-12) to the secondary period (average Hb from Weeks 18-20). Other secondary endpoints included mean change in Hb from Baseline (average pretreatment Hb) and the secondary evaluation period (average Hb from Weeks 18-20), proportion of subjects with Hb values within the target range (10.0 to 11.0 g/dL, inclusive) at the secondary evaluation period (Weeks 18 to 20), for subjects who transitioned to TIW vadadustat dosing, proportion of subjects with Hb values within the target range (10.0 to 11.0 g/dL, inclusive) at the secondary evaluation period (Weeks 18-20), proportion of subjects with a mean increase in Hb from Baseline to the primary evaluation period ≥0.5 g/dL (average Hb from Weeks 10-12) or with Hb values within the target range (10.0 to 11.0 g/dL, inclusive) at the primary evaluation period (Weeks 10-12), proportion of subject with a mean increase in Hb from Baseline to the secondary evaluation period ≥0.5 g/dL (average Hb from Weeks 18-20) or with Hb values within the target range (10.0 to 11.0 g/dL, inclusive) at the secondary evaluation period (Weeks 18-20), intravenous (IV) iron supplementation, ESA rescue, and RBC transfusion.
Study Design. This was a Phase 2, randomized, open-label study to evaluate vadadustat for the treatment of anemia in hemodialysis subjects converting from epoetin alfa therapy. For all subjects (Main study and ESA hyporesponder parallel study), the study included a Screening Period, a study Treatment Period, and a Safety Follow-Up Period as described below. PK and PD sampling were done throughout the study. The aim was to achieve and maintain Hb levels within the target range of 10.0 to 11.0 g/dL, inclusive, while targeting the middle of the range and minimizing excursions outside the target range.
Randomization. Subjects were randomized to either a vadadustat treatment arm or epoetin alfa treatment arm. Randomization was stratified by mean weekly epoetin alfa dose calculated over a period of 8 weeks prior to SV2: low epoetin alfa dose group (≤90 U/kg/week) or high epoetin alfa dose group (>90 to <300 U/kg/week). In the low epoetin alfa dose group, subjects were randomized in a 3:3:2 ratio to receive either an initial vadadustat daily dose of 450 mg (3 tablets) or 300 mg (2 tablets), or epoetin alfa. In the high epoetin alfa dose group, subjects were randomized in a 3:3:3:2 ratio to receive either an initial vadadustat daily dose of 600 mg (4 tablets), 450 mg (3 tablets) or 300 mg (2 tablets), or epoetin alfa.
Study Treatment Period (Baseline/Day 1 to Week 20). […]

[1] = Vadadustat, subjects did not switch
[2] = Vadadustat, subjects switched from QD to TIW
[3] = whole treatment group, Main Study

Compound: O=C(O)CNC(=O)c1ncc(-c2cccc(Cl)c2)cc1O [vadadustat, {[5-(3-chlorophenyl)-3-hydroxypyridine-2-carbonyl]amino}acetic acid]
- Mean change from baseline in Hb over time, versus comparator (Randomized population, FIG. 13 and FIG. 14): lower than the epoetin alfa treatment group throughout
- Change in Hb from Primary Evaluation Period to Secondary Evaluation Period, Mean (SD) (Vadadustat Total, Overall): −0.064 (1.2236) g/dL
- Change in Hb from Primary Evaluation Period to Secondary Evaluation Period, Median (Vadadustat Total, Overall): -0.033 g/dL
- Hb at Primary Evaluation Period (Average of Weeks 10 to 12), Mean (SD) (Vadadustat Total, Overall): 9.809 (1.1548) g/dL
- Hb at Primary Evaluation Period (Average of Weeks 10 to 12), Median (Vadadustat Total, Overall): 9.900 g/dL
- Hb at Secondary Evaluation Period (Average of Weeks 18 to 20), Mean (SD) (Vadadustat Total, Overall): 9.876 (0.8867) g/dL
- Hb at Secondary Evaluation Period (Average of Weeks 18 to 20), Median (Vadadustat Total, Overall): 9.800 g/dL
- Change in Hb from Primary Evaluation Period to Secondary Evaluation Period, Mean (SD) [1]: 0.039 g/dL
- Change in Hb from Primary Evaluation Period to Secondary Evaluation Period, Median [1]: 0.067 g/dL
- Hb at Primary Evaluation Period (Average of Weeks 10 to 12), Mean (SD) [1]: 9.694 (1.2248) g/dL
- Hb at Primary Evaluation Period (Average of Weeks 10 to 12), Median [1]: 9.483 g/dL
- Hb at Secondary Evaluation Period (Average of Weeks 18 to 20), Mean (SD) [1]: 9.854 (0.8378) g/dL
- Hb at Secondary Evaluation Period (Average of Weeks 18 to 20), Median [1]: 9.800 g/dL
- Change in Hb from Primary Evaluation Period to Secondary Evaluation Period, Mean (SD) (Vadadustat, subjects did not switch, listed as Vadadustat): 0.039 (1.2286) g/dL
- Change in Hb from Primary Evaluation Period to Secondary Evaluation Period, Mean (SD) [2]: -0.422 g/dL
- Change in Hb from Primary Evaluation Period to Secondary Evaluation Period, Median [2]: -0.350 g/dL
- Hb at Primary Evaluation Period (Average of Weeks 10 to 12), Mean (SD) [2]: 10.376 (0.3754) g/dL
- Hb at Primary Evaluation Period (Average of Weeks 10 to 12), Median [2]: 10.433 g/dL
- Hb at Secondary Evaluation Period (Average of Weeks 18 to 20), Mean (SD) [2]: 9.955 (1.0716) g/dL
- Hb at Secondary Evaluation Period (Average of Weeks 18 to 20), Median [2]: 9.900 g/dL
- Change in Hb from Primary Evaluation Period to Secondary Evaluation Period, Mean (SD) (Vadadustat, subjects switched from QD to TIW, listed as Vadadustat): −0.422 (1.1708) g/dL
- proportion of subjects having Hb values within target range at Weeks 10 to 12 (vadadustat 300 mg group of the high epoetin alfa stratum): 8.3%
- course of Hb versus baseline (vadadustat 300 mg, high epoetin alfa stratum): decrease from baseline in Hb up to Week 10, after which Hb began to return towards baseline
- mean (SD) Hb at the PEP (Weeks 10 to 12) [3]: 9.78 (1.048) g/dL
- mean (SD) changes from baseline in Hb at the PEP [3]: −0.35 (0.976) g/dL
- proportion of subjects having Hb values within target range at the PEP (Weeks 10 to 12) [3]: 32.7%
